“And” between values parts separate entries of the source, which are not always exact repeats. Equal entries are not always repeated.
Legend:
[1] = test system: large intestine; experiment: Co-administration of GLP-2 with IGF-1 or GH: large intestine mass (Example 2); type: in vivo, mice; settings: for Large Intestine Mass: s.c. twice daily (GH once daily) for 10 days, sacrifice day 11, GLP-2 peptides 2.5 μg, IGF-1/LRIGF-1 50 μg, GH 25 μg per dose, CD1 female mice; for % Change Relative to PBS Control (large intestine) / Change in Intestine Mass Relative to Control (large intestine): same regimen; for Change in Intestine Mass Relative to Control (large intestine): relative to PBS control
Source text: (§1) Forty-eight, six week old female CD1 mice (approx. 25 grams, obtained from Charles River Laboratories) were acclimatized in the animal facility for 1 week prior to the experiment. They were housed in plastic bottom, wire lid cages, maintained on a 12 hr light/dark cycle, and allowed chow and water, ad libitum throughout the study. Four days before starting the treatment the mice were weighed using a Mettler PJ300 scale and randomly allocated to 1 of 12 treatment groups. For the experiment, subcutaneous injections in the right hind quarter were given twice daily in the morning and evening for 10 days. However, Growth Hormone (GH) was administered only once a day in the morning. On day 10, the mice were fasted from 12 noon on. Body weight was also taken on day 5 and day 11.
(§2) The treatment groups consisted of the following peptides and peptide combinations. The amount of peptide received per dose by each animal is marked in beside each entry.
(§3) The peptides were weighed (Mettler AE166 scale), reconstituted and aliquoted on the day prior to the first injection. The injection volume, 0.5 ml, was constant through out the experiment using a 1/2 cc U-100 Insulin Syringe (Becton Dickinson and Company, N.J.). All peptide aliquots, except Protropin (GH), were kept at -20° C. and removed 60 minutes prior to injection to thaw. GH was kept at 4° C.
(§4) Control mice (group 1) received the same volume (0.5 ml) of phosphate buffered saline (PBS-1x-137 mM NaCl, 2.7 mM KCl, 4.3 mM Na2HPO4, pH 7.3). Peptides [rat GLP-2] (5 μg/ml) and human [Gly 2] GLP-2 (5 μg/ml) were reconstituted in PBS. One microliter of 1 N NaOH was required to dissolve [Gly2]hGLP-2 in 1 ml.
(§5) IGF recombinant peptides (IGF-1, Lot #FJF-103;Long R3IGF-1(LRIGF-1), Lot# HJF-A01 GroPep Pty Ltd., Australia) stock solutions were reconstituted in 10 mM HCl at a concentration of 1 mg/ml. To minimize the absorption of the peptide to the plastic surface, RIA Grade Bovine Serum Albumin (BSA) (BioLabs Lot 7943) was added to the PBS working solution (100 μg/ml BSA final concentration). Protropin (Growth hormone) (Lot C9009A2, Genentech Canada Inc., Burlington, ON) stock solution was reconstituted with Bacteriostatic water supplied in the kit. The working solution (50 μg/ml) was diluted in PBS (without BSA). Combination treatments of GH+rat GLP-2 and GH+[Gly 2]hGLP-2 were administered by mixing 0.25 mls of each peptide, which were taken up into the same syringe to maintain a consistent injection volume of 0.5 ml. All other combination treatments (for example, rGLP-2+IGF etc.) were initially made up as separate solutions, mixed together, and frozen down together as aliquots of a single mixture, to be administered as single 0.5 ml injections.
(§6) Mice were sacrificed on day 11. Weight measurements were taken for the heart, kidneys, stomach, small intestine and large intestine. Small intestine length was also measured. Blood was taken via cardiac puncture and the plasma was frozen for future analysis. Tissues were also removed for histological analysis.

[2] = test system: small intestine; experiment: Co-administration of GLP-2 with IGF-1 or GH: small intestine mass (Example 2); type: in vivo, mice; settings: for Small Intestine Mass: s.c. twice daily (GH once daily) for 10 days, sacrifice day 11, GLP-2 peptides 2.5 μg, IGF-1/LRIGF-1 50 μg, GH 25 μg per dose, CD1 female mice; for % Change Relative to PBS Control (small intestine) / Change in Intestine Mass Relative to Control (small intestine): same regimen; for Change in Intestine Mass Relative to Control (small intestine): relative to PBS control
Source text: as §1, §2, §3, §4, §5, §6

[3] = test system: small intestine; experiment: Effect of rat GLP-2 on small intestine weight in mice (Example 1); type: in vivo; settings: for Small Intestine Weight % body wt / Small Intestine Weight Ave: group average; for Small Intestine Weight % body wt / Small Intestine Weight Ave / Small Intestine Weight Day 10: 41.5 μg peptide per injection s.c. every 12 hours for 10 days, CD1 females; for Small Intestine Weight Day 10: single mice
Method: This experiment was designed to investigate the effect of GLP-2 on small intestine growth. Mice were treated with human GLP-1, rat GLP-2, or no peptide, and the mass of the small intestine analyzed.
For this experiment, rat GLP-2 and human GLP-1 (7-36 amide) were custom synthesized by application of the tBoc-based solid phase approach. […] The pH was then readjusted to about 7.0 by addition of an equal volume of IN NaOH […], and the solution volume was then adjusted to 10 mL by addition of distilled water. To prepare the formulation for injection, the 10 mL peptide solution and the 50 mL solution of 16% gelatin were combined with mixing, and aliquots for injection were drawn into a 0.5 mL insulin syringe. The same procedure was used to formulate the GLP-1, with the exception that no acid/base adjustment was necessary given its relative greater solubility in water.
Three groups of six mice (8 week old, CD1 females from Charles River Laboratories) were treated as follows. Each mouse received injections for 10 days. The injections were delivered subcutaneously in a final volume of 16% gelatin, with 0.5 cc injected subcutaneously every 12 hours. Mice treated with GLP-1 or GLP-2 peptide received 41.5 μg of the respective peptide in each injection. Control mice received 0.5 cc of 16% gelatin solution, but no peptide. Mice were fed standard rat chow with free access to food and water, until 12 hours prior to sacrifice, at which time food was withheld, and water only was given. The weight of the small intestine was ascertained by excising the entire intestine, and removing the stomach (proximal end) and appendix/cecum/large intestine (distal end). The remaining small intestine was cleaned with saline to remove feces, and weighed.

| Substance | Large Intestine Mass [1] | % Change Relative to PBS Control (large intestine) [1] | Change in Intestine Mass Relative to Control (large intestine) [1] | Small Intestine Mass [2] | increase in the mass of small intestine relative to control group and GLP-1 group ([3]; about 2 mg/kg (about 500 nmole/kg) twice daily for 10 days) | Small Intestine Weight % body wt [3] | Small Intestine Weight Ave [3] | Small Intestine Weight Day 10 [3] | % Change Relative to PBS Control (small intestine) [2] | Change in Intestine Mass Relative to Control (small intestine) [2] |
| --- | --- | --- | --- | --- | --- | --- | --- | --- | --- | --- |
| IGF-1: Insulin-Like Growth Factor-1, recombinant peptide, GroPep Pty Ltd. | 0.262 g | -7% | 0.021 g | 1.158 g and 1.517 g |  |  |  |  |  |  |
| rat GLP-2: rat Glucagon-like peptide-2, 33 amino acid peptide, custom synthesized by tBoc-based solid phase approach (HADGSFSDEMNTILDNLATRDFINWLIQTKITD; Glucagon-like peptide 2; UniProt P06883 146-178, looked up) | 0.245 g | -13.10% | -0.038 g | 1.066 g | statistically significant (p-- 0.05) increase | 8.12 ± .40 % body wt | 2.08 ± .14 gm | 1.8 gm and 2.3 gm and 2.4 gm | +3% | 0.031 g |
| [Gly 2] hGLP-2: Human GLP-2 having Gly substituted for Ala at position 2 (HGDGSFSDEMNTILDNLAARDFINWLIQTKITD; Glucagon-like peptide 2; UniProt P01275 146-178, looked up, variant A2G) | 0.308 g | +9% | 0.025 g | 1.810 g |  |  |  |  | +75% | 0.775 g |
| hGH: Protropin (Growth hormone), Genentech Canada Inc. [reference compound] | 0.260 g | -8% | 0.023 g | 1.230 g |  |  |  |  | +19% | 0.195 g |
| human GLP-1 (7-36 amide) [reference compound] |  |  |  |  |  | 5.26 ± .25 % body wt | 1.33 ± .04 gm | 1.4 gm and 1.3 gm and 1.2 gm |  |  |

From patent publication US5952301A, “Compositions and methods for enhancing intestinal function” (1149336 Ontario Inc., priority 1996, dated 1999)
